Laboratory results from patent publication US20240182945A1, “PRODUCTS FOR REGULATION OF EUKARYOTIC AND MICROBIAL CELLS GROWTH” (priority 2021, published 2024).
Converted amounts (≈) assume the structure as drawn. Read-outs that look alike come from different tables or passages of the source.

What was measured:
S. aureus = assay: Sensitivity of PP to antibiotics, standard serial microbroth-dilution method (Example 24); assay type: cell-based; details: for MIC: Staphylococcus aureus
[1] = test system: PP+MM within the biosample; assay: Presence of bacterial growth in the wells supplemented with amoxicillin; assay type: cell-based; parameters: key: “+” - presence of bacterial growth, antibiotic is ineffective; “−”- absence of bacterial growth, antibiotic is effective
Protocol: Next, biosamples were plated to the wells of 48 well plate filled with Columbia+Pept Meat Agar supplemented with Amoxicillin. We modulated a QID, BID and TID administration of amoxicillin on PP+MM within the biosample. The following assumptions were made.
Next we evaluated Presence of bacterial growth in the wells supplemented with amoxicillin.

CC1(C)S[C@@H]2[C@H](NC(=O)[C@H](N)c3ccc(O)cc3)C(=O)N2[C@H]1C(=O)O [Amoxicillin]
Sensitivity (CLSI interpretation) (S. aureus; Biosample 1, S. aureus): S | Sensitivity (CLSI interpretation) (S. aureus; Biosample 2, S. aureus): I | Sensitivity (CLSI interpretation) (S. aureus; Biosample 3, S. aureus): S | MIC (S. aureus; Biosample 1, S. aureus): 0.25 µg/mL (≈ 0.684 µM) | MIC (S. aureus; Biosample 2, S. aureus, read-out: MIC): 4 µg/mL (≈ 10.9 µM) | MIC (S. aureus; Biosample 3, S. aureus, read-out: MIC): 2 µg/mL (≈ 5.47 µM) | Presence of bacterial growth in the wells ([1]; Biosample 1 (PP S. aureus), C0-6 h): − | Presence of bacterial growth in the wells ([1]; Biosample 1 (PP S. aureus), C0-12 h): − | Presence of bacterial growth in the wells ([1]; Biosample 1 (PP S. aureus), C0-24 h): − | Presence of bacterial growth in the wells ([1]; Biosample 2 (PP S. aureus), C0-6 h): − | Presence of bacterial growth in the wells ([1]; Biosample 2 (PP S. aureus), C0-12 h): + | Presence of bacterial growth in the wells ([1]; Biosample 2 (PP S. aureus), C0-24 h): + | Presence of bacterial growth in the wells ([1]; Biosample 3 (PP S. aureus), C0-6 h): − | Presence of bacterial growth in the wells ([1]; Biosample 3 (PP S. aureus), C0-12 h): − | Presence of bacterial growth in the wells ([1]; Biosample 3 (PP S. aureus), C0-24 h): +
